Among the data in PubChem BioAssay (NCI) are TGI and GI50 values, retold here.

Some test systems named below: DLD-1 colon; 786-0 renal; LXFL 529 NSCLC; KM12 colon; XF 498 CNS; HOP-62 NSCLC; RXF 393 renal; DMS 114 small cell lung; M19-MEL melanoma; KM20L2 colon; DMS 273 small cell lung; SNB-78 CNS; UACC-62 melanoma; RXF-631 renal; HOP-18 NSCLC.
Assay in all cases: growth of human tumour cells (NCI), 48 h

Values joined by “and” are separate entries in the source; they are usually repeats but may differ in a detail not shown here. Equal entries are not always repeated.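 Each compound was tested at five concentrations against cells in 96-well plates for 48 hours. GI50 marks 50% less growth. Definition used: TGI = concentration required for complete inhibition of growth.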

For `NC(=S)N1N=C2c3ccccc3CCC[C@H]2[C@@H]1c1ccccc1`, the TGI with DLD-1 colon turned out to be 25.7 µM; in the assay with 786-0 renal, 21.8 µM; with LXFL 529 NSCLC, 18.2 µM; in the assay on KM12 colon, 18.3 µM; with XF 498 CNS, 16.5 µM; in the assay on HOP-62 NSCLC, 19.2 µM. The TGI with RXF 393 renal is 6.68 µM; with DMS 114 small cell lung, 50.8 µM; in the assay with M19-MEL melanoma, over 100 µM; with KM20L2 colon, 5.22 µM; in the assay with DMS 273 small cell lung it was 11.3 µM; in the assay on SNB-78 CNS, 61.9 µM.
Turning to `CCO/C(O)=c1/s/c(=C(\C#N)c2nc3ccccc3[nH]2)n(-c2ccccc2)c1=N`, the TGI with DLD-1 colon, in the assay with 786-0 renal, in the assay with LXFL 529 NSCLC, with UACC-62 melanoma, in the assay with XF 498 CNS and in the assay on HOP-62 NSCLC was over 100 µM each time. For the same compound, the TGI with RXF 393 renal, in the assay on M19-MEL melanoma, with KM20L2 colon, with DMS 273 small cell lung and in the assay with SNB-78 CNS was over 100 µM in each case.
For the compound `CCCN(CCC)C(=O)c1c(N2CCN(C)CC2)c2cccnc2n2c(C)cnc12`, the TGI in the assay with 786-0 renal, with UACC-62 melanoma, in the assay with KM12 colon, in the assay on HOP-62 NSCLC and in the assay on RXF 393 renal was over 100 µM throughout.
Turning to `Cc1cc(C)n(-c2nc(C)c(CCO)c(=O)[nH]2)n1`, the TGI with 786-0 renal, in the assay with UACC-62 melanoma, with KM12 colon, in the assay with HOP-62 NSCLC and in the assay with RXF 393 renal was over 100 µM each time.
With `C=C1CCOC2(C(O)C(C)(O)CO)NC(=O)C1(O)NC2=O` (stereo unspecified), the TGI with 786-0 renal, in the assay with UACC-62 melanoma, with KM12 colon, in the assay with HOP-62 NSCLC and in the assay with RXF 393 renal was over 100 µM each time.
In the case of `COc1cc(/C=C/C(=N\NC(N)=S)c2sc(NNC(C)=O)nc2C)ccc1O`, the TGI with 786-0 renal, in the assay on UACC-62 melanoma, in the assay with KM12 colon, in the assay with HOP-62 NSCLC and with RXF 393 renal was over 100 µM each time.
For `O=c1[nH]c2ccc(CC(=S)N3CCOCC3)cc2o1`, the TGI in the assay with 786-0 renal, in the assay with UACC-62 melanoma, in the assay with KM12 colon, in the assay on HOP-62 NSCLC and with RXF 393 renal was over 100 µM each time.
As to `Fc1ccc(C(OCCN2CCC3CCC(C2)N3C/C=C/c2cccs2)c2ccc(F)cc2)cc1` (stereo unspecified), the TGI was 20.8 µM in the assay on 786-0 renal; 23.7 µM in the assay with UACC-62 melanoma; 19.7 µM with KM12 colon; 30.2 µM in the assay on HOP-62 NSCLC; 16.3 µM in the assay with RXF 393 renal.
For `COc1cc2c[n+](C)c3c4cc(OC)c(OCc5ccccc5)cc4c(OCc4ccccc4)cc3c2cc1OC`, the TGI stood at 35.5 µM with 786-0 renal; 10.4 µM in the assay with UACC-62 melanoma; 23.8 µM with KM12 colon; 39.3 µM with HOP-62 NSCLC; 41.1 µM in the assay with RXF 393 renal.
Taken in the same sequence, the figures for `CC(NNC(=O)c1ccncc1)c1cccc(C(F)(F)F)c1` (stereo unspecified) were over 100 µM, over 100 µM, over 100 µM, over 100 µM and over 100 µM.
On to `NC1=Nc2ccccc2Sc2cccc(F)c21`, for which the TGI in the assay on 786-0 renal, with UACC-62 melanoma, in the assay with KM12 colon, in the assay with HOP-62 NSCLC and in the assay with RXF 393 renal was over 100 µM in each case.
In the case of `Cc1nc2ccc(NC3OCC(O)C(O)C3O)cc2c(=O)n1-c1ccccc1` (stereo unspecified), the TGI with 786-0 renal, in the assay with UACC-62 melanoma, in the assay on KM12 colon, in the assay on HOP-62 NSCLC and with RXF 393 renal was over 100 µM in each case.
In the case of `CCCCCCCCCCCCOC1C(COCCN2CCCCC2)OC2OC(C)(C)OC21` (stereo unspecified), the TGI came out at 3.11 µM in the assay with 786-0 renal; 3.27 µM with UACC-62 melanoma; 3.06 µM with KM12 colon; 3.25 µM with HOP-62 NSCLC; 3.4 µM with RXF 393 renal.
On to `CN(C)S(=O)(=O)c1nc(Cl)c2[nH]cnc2n1`, for which the TGI in the assay with 786-0 renal, with UACC-62 melanoma, in the assay with KM12 colon, in the assay on HOP-62 NSCLC and in the assay with RXF 393 renal was over 100 µM in each case.
Consider `O=S(=O)(/N=C(\NO)Nc1ccc(Cl)cc1)c1cc2ccccc2s1`, for which the TGI in the assay on 786-0 renal was determined as 32.3 µM; with UACC-62 melanoma, 29.3 µM; with KM12 colon, 57.2 µM; in the assay with HOP-62 NSCLC, 34.8 µM; in the assay on RXF 393 renal it was 36 µM.
For the compound `COc1ccc(-c2oc3cc(O)c(OC)c(O)c3c(=O)c2O)cc1`, the TGI in the assay on DLD-1 colon is 30.8 µM; in the assay with 786-0 renal it was 33.1 µM; in the assay with LXFL 529 NSCLC it was over 100 µM; in the assay on RXF-631 renal it was over 100 µM; with UACC-62 melanoma, over 87.8 µM; in the assay with KM12 colon, over 100 µM. The TGI was over 100 µM in the assay on XF 498 CNS; 25.7 µM in the assay on HOP-62 NSCLC; 50.2 µM in the assay on RXF 393 renal; over 100 µM in the assay on M19-MEL melanoma; over 100 µM in the assay on KM20L2 colon; 30 µM in the assay on DMS 273 small cell lung. Also, the TGI in the assay with SNB-78 CNS and in the assay with HOP-18 NSCLC was over 100 µM each time.
On to `CC1CN(CCO)CCN1c1ccccc1` (stereo unspecified), for which the TGI in the assay on 786-0 renal, with UACC-62 melanoma, with KM12 colon, in the assay with HOP-62 NSCLC and in the assay with RXF 393 renal was over 100 µM in each case.
For `COc1ccc([I+]c2ccc(OC)cc2)cc1`, the TGI was over 100 µM in the assay with 786-0 renal; over 100 µM with UACC-62 melanoma; over 100 µM in the assay on KM12 colon; > 73.2 µM and 92 µM in the assay with HOP-62 NSCLC; over 100 µM in the assay with RXF 393 renal. The GI50 with UACC-62 melanoma is 29.9 µM; in the assay on KM12 colon, 6.63 µM; with HOP-62 NSCLC, 3.34 µM; with RXF 393 renal it was 27.3 µM.
For `C=C(C)CCC1C=[N+]([O-])OC(C)(C)C1(C)C` (stereo unspecified), the TGI in the assay with 786-0 renal, in the assay on UACC-62 melanoma, in the assay on KM12 colon, in the assay on HOP-62 NSCLC and in the assay with RXF 393 renal was over 100 µM in each case.
On to `CCOC(=O)c1cc(C)nc2c1c(=O)n(-c1ccccc1)c(=O)n2CCCCN1CCN(c2ncccn2)CC1`, for which the TGI in the assay with 786-0 renal, with UACC-62 melanoma, in the assay on KM12 colon, in the assay with HOP-62 NSCLC and with RXF 393 renal was over 100 µM each time.
